Reference: US12492184B2, “Heteroaryl compounds, preparation methods and uses thereof” (InventisBio Co., Ltd., priority 2020, dated 2025)

tested on: HEK-Blue IL23 Reporter; assay: HEK-Blue IL-23 STAT3 Reporter Assay; format: cell-based, human; details: HEK-Blue IL23 cells stimulated with IL-23 overnight; SEAP read with QUANTI-Blue at OD655
Protocol: HEK-Blue IL23 cells (InvivoGen catalog #HKB-IL23) are designed for the detection of bioactive IL-23 by monitoring the activation of the STAT3 pathway. They were generated by stably introducing the genes for the human IL-23 receptor, STAT3, and the SEAP (secreted embryonic alkaline phosphatase) reporter gene into human HEK293 cell line.
Briefly, around 50,000 cells in DMEM medium supplemented with 10% heat inactivated FBS (˜180 ul) were seeded into each well and incubate for 48 hours at 37° C. with 5% CO2 in air. On day 3, one microliter of compound and 20 ul IL-23 were transferred to the assay plate respectively. The plate was left in the 37° C. incubator overnight. Two microliter of cell supernatant was transferred to a 384-well plate, and 18 ul of resuspended QUANTI-Blue solution was added to each well. SLAP levels were determined using Tecan Spark at OD655.
Cells with no IL23 added were used as Low control. Cells stimulated with IL23 were used as High control. Inhibition rate was calculated with the formula of % inhibition=100*(High control−Treated Well)/(High Control−Low control). IL-23 reporter assay inhibition IC50 was calculated with the equation of Y=Bottom+(Top-Bottom)/(1+10^((Log IC50−X)*HillSlope)).

In order of rising IC50:
1. [2H]C([2H])([2H])NC(=O)c1nnc(NC(=O)[C@H]2CC23CC3)cc1Nc1nccc2c1S(C)(=O)=NC2 (stereo partly drawn) [Compound 129]  0.4 nM
2. [2H]C([2H])([2H])NC(=O)c1nnc(NC(=O)[C@H]2CC23CC3)cc1Nc1nccc2c1S(C)(=O)=NC2 (stereo partly drawn) [Compound 130]  59.9 nM

same assay, conditions: Homo sapiens, HEK-Blue IL-23, HEK-Blue IL23 cells stimulated with IL-23 overnight; SEAP read with QUANTI-Blue at OD655

In order of rising IC50:
1. [2H]C([2H])([2H])NC(=O)c1nnc(NC(=O)[C@H]2CC23CC3)cc1Nc1ncc(N2CC(F)C2)cc1S(C)(=O)=O [Compound 128]  1 nM
2. [2H]C([2H])([2H])NC(=O)c1nnc(NC(=O)[C@H]2CC23CC3)cc1Nc1ncc(N2CCOC[C@H]2C)cc1S(C)(=O)=O [Compound 121]  1.2 nM
3. [2H]C([2H])([2H])NC(=O)c1nnc(NC(=O)[C@H]2CC23CC3)cc1Nc1ncc(N2CCC2)cc1S(C)(=O)=O [Compound 133]  1.2 nM
4. [2H]C([2H])([2H])NC(=O)c1nnc(NC(=O)[C@H]2CC23CC3)cc1Nc1ncc(N2CC(F)(F)C2)cc1S(C)(=O)=O [Compound 124]  1.9 nM
5. [2H]C([2H])([2H])NC(=O)c1cnc(NC(=O)[C@H]2CC23CC3)cc1Nc1ncc(Cl)cc1S(C)(=O)=O [Compound 119]  6.2 nM
6. [2H]C([2H])([2H])NC(=O)c1nnc(NC(=O)[C@H]2CC23CC3)cc1Nc1nc(C)sc1S(C)(=O)=O [Compound 127]  6.4 nM
7. [2H]C([2H])([2H])NC(=O)c1nnc(NC(=O)[C@H]2CC23CC3)cc1Nc1ncc(OC(F)(F)F)cc1S(C)(=O)=O [Compound 132]  6.5 nM
8. [2H]C([2H])([2H])NC(=O)c1nnc(NC(=O)[C@H]2CC23CC3)cc1Nc1nc(C)c(F)cc1S(C)(=O)=O [Compound 125]  7.3 nM
9. [2H]C([2H])([2H])NC(=O)c1nnc(NC(=O)C2CC2)cc1Nc1ncc(C(C)(C)O)cc1S(C)(=O)=O [Compound 131]  9 nM
10. [2H]C([2H])([2H])NC(=O)c1nnc(NC(=O)[C@H]2CC23CC3)cc1Nc1ncc(C(C)(C)O)cc1S(C)(=O)=O [Compound 120]  14.7 nM
11. [2H]C([2H])([2H])NC(=O)c1nnc(NC(=O)[C@H]2CC23CC3)cc1Nc1ncc(N2CCOC[C@@H]2C)cc1S(C)(=O)=O [Compound 122]  16.1 nM
12. [2H]C([2H])([2H])NC(=O)c1nnc(NC(=O)[C@H]2CC23CC3)cc1Nc1ncc(C#N)cc1S(C)(=O)=O [Compound 126]  17.4 nM
13. [2H]C([2H])([2H])NC(=O)c1nnc(NC(=O)[C@H]2CC23CC3)cc1Nc1nc(C2CC2)sc1S(C)(=O)=O [Compound 123]  19.8 nM
